According to patent US10561638B2, “Methods for treating dependence” (Biotie Therapies, Inc., priority 2007, dated 2020):

Key:
[1] = tested on: normal dogs; assay: Cardiovascular effects of i.v. dosing in dogs; type: in vivo; settings: anesthetized dogs, 1-10 mg/kg i.v., up to five hours
[2] = tested on: anesthetized SHRs; assay: Acute i.v. treatment of anesthetized SHRs, blood pressure and renal function; type: in vivo, spontaneously hypertensive rats; settings: 3.0 mg/kg i.v.
Excerpt: The calculated renal vascular resistance was decreased following dosing. An attempt was made using the DA-1 antagonist SCH-23390 to assess if the renal vasodilator effects of nepicastat were mediated by DA-1 receptors.

[3] = target: β2 adrenoceptors (Homo sapiens, UniProt P07550); assay: Radioligand binding assay
β2 adrenoceptors, sequence (P07550 whole entry): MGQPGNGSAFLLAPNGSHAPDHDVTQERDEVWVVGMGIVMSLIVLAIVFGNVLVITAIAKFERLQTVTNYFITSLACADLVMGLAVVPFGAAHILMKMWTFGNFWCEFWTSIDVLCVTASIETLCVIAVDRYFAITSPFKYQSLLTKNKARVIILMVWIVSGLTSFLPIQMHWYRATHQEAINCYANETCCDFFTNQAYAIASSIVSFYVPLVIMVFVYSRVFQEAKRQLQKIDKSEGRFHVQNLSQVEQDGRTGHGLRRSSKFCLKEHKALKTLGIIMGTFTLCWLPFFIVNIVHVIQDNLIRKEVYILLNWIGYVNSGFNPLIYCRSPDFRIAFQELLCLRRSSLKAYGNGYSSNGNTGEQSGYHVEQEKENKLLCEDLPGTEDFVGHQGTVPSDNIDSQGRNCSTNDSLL
Protocol: (§1) The activity of nepicastat at twelve selected enzymes and receptors was determined using established assays. Binding data were analyzed by iterative curve-fitting to a four parameter logistic equation. Ki values were calculated from IC50 values using the Cheng-Prusoff equation. Enzyme inhibitory activity was expressed as IC50 (concentration required to produce 50% inhibition of enzyme activity).
(§2) The activity of nepicastat at eleven different enzymes was determined using established assays. The affinity of nepicastat for thirteen selected receptors was determined by radioligand binding assays using standard filtration techniques and membrane preparations. Binding data were analyzed by iterative curve fitting to a four parameter logistic equation. Ki values were calculated using the Cheng-Prusoff equation.

[4] = target: α2B adrenoceptors (Homo sapiens, UniProt P18089); assay: Radioligand binding assay
α2B adrenoceptors, sequence (P18089 whole entry): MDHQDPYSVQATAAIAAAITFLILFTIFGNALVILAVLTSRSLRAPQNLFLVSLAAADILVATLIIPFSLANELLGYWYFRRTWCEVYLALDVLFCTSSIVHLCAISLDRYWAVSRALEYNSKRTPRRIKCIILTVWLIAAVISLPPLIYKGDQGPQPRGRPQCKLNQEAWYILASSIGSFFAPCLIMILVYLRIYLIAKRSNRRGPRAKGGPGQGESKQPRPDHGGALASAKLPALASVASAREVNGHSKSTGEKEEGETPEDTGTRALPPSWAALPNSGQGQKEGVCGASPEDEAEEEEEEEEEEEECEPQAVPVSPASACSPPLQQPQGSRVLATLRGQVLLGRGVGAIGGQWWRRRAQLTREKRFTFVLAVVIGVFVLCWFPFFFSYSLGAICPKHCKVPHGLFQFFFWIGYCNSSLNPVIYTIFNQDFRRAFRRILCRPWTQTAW
Protocol: as §1, §2

[5] = target: β1 adrenoceptors (Homo sapiens, UniProt P08588); assay: Radioligand binding assay
Protocol: as §1, §2

[6] = target: μ opioid receptors (Homo sapiens, UniProt P35372); assay: Radioligand binding assay
μ opioid receptors, sequence (P35372 whole entry): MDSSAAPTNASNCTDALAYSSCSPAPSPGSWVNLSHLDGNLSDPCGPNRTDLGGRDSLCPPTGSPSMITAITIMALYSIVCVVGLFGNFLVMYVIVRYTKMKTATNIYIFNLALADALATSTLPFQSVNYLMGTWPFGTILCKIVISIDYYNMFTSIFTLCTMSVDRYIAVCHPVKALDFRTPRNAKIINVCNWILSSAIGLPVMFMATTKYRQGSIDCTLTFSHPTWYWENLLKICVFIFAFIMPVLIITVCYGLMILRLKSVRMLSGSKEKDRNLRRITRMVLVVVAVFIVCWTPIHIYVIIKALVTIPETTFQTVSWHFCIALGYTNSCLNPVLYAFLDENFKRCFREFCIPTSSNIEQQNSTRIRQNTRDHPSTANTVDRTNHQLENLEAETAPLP
Protocol: as §1, §2

[7] = target: α2A adrenoceptors (Homo sapiens, UniProt P08913); assay: Radioligand binding assay
α2A adrenoceptors, sequence (P08913 whole entry): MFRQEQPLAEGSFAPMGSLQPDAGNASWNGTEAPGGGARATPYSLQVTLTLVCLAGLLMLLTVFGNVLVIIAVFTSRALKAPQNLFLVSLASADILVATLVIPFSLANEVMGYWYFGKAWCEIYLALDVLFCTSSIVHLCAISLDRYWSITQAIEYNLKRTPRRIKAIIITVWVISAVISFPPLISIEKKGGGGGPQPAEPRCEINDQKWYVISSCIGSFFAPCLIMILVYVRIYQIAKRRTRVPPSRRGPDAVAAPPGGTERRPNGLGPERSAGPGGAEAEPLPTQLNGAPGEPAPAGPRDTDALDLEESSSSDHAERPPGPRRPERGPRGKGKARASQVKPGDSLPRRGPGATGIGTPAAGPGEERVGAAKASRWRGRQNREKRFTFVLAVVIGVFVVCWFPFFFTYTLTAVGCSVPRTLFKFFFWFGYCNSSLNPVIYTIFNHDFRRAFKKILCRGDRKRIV
Protocol: as §1, §2

[8] = target: α1A adrenoceptors (Homo sapiens, UniProt P35348); assay: Radioligand binding assay
Protocol: as §1, §2

[9] = target: α1B adrenoceptors (Homo sapiens, UniProt P35368); assay: Radioligand binding assay
α1B adrenoceptors, sequence (P35368 whole entry): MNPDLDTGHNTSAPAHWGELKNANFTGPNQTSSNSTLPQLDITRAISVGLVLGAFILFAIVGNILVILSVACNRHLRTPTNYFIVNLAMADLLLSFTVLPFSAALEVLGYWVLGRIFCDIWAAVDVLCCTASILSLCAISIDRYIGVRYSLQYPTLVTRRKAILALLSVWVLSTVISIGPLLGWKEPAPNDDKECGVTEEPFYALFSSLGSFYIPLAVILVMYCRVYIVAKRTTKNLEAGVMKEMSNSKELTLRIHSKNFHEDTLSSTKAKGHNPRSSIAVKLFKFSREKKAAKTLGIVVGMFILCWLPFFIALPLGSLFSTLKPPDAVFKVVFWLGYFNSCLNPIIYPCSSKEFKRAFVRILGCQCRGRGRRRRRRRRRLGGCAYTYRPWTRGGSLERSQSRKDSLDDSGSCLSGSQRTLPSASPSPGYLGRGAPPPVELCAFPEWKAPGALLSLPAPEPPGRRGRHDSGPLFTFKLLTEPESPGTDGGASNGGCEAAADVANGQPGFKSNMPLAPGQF
Protocol: as §1, §2

[10] = tested on: brain dopamine/norepinephrine ratio; assay: Dopamine/norepinephrine ratios in the brain of rodents; settings: in vivo
Protocol: Dopamine/norepinephrine ratios in the brain of rodents treated with nepicastat were determined. Dopamine/norepinephrine ratios increased in the brains of rodents treated with nepicastat or disulfuram.

[11] = target: neutral endopeptidase (Homo sapiens, UniProt P08473); assay: Enzyme selectivity assay; type: biochemical
neutral endopeptidase, sequence (P08473 whole entry, species assumed): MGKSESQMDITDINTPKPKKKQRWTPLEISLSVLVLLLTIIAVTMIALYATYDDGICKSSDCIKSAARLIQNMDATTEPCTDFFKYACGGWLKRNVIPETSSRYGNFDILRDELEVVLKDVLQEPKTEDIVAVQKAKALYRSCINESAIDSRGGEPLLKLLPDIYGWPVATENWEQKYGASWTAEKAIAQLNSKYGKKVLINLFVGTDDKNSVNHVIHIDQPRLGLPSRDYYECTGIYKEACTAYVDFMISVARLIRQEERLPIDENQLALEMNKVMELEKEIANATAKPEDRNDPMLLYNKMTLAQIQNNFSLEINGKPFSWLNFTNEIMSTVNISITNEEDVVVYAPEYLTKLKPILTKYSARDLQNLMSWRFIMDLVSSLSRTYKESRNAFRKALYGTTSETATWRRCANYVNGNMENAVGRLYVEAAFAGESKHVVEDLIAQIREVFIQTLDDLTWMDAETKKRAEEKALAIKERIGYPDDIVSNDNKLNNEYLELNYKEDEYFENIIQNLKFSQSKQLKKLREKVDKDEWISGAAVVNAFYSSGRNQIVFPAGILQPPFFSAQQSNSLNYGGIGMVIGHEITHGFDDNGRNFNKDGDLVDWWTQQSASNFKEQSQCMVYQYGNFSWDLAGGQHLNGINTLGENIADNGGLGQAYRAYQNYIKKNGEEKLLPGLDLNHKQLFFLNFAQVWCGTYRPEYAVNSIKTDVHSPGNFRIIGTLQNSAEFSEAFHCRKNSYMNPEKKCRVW
Protocol: as §1, §2

[12] = target: Ca2+/calmodulin protein kinase II; assay: Enzyme selectivity assay; type: biochemical
Protocol: as §1, §2

[13] = target: acyl CoA-cholesterol acyl transferase; assay: Enzyme selectivity assay; type: biochemical
Protocol: as §1, §2

[14] = target: cyclooxygenase-I (Homo sapiens, UniProt P23219); assay: Enzyme selectivity assay; type: biochemical
cyclooxygenase-I, sequence (P23219 24-599): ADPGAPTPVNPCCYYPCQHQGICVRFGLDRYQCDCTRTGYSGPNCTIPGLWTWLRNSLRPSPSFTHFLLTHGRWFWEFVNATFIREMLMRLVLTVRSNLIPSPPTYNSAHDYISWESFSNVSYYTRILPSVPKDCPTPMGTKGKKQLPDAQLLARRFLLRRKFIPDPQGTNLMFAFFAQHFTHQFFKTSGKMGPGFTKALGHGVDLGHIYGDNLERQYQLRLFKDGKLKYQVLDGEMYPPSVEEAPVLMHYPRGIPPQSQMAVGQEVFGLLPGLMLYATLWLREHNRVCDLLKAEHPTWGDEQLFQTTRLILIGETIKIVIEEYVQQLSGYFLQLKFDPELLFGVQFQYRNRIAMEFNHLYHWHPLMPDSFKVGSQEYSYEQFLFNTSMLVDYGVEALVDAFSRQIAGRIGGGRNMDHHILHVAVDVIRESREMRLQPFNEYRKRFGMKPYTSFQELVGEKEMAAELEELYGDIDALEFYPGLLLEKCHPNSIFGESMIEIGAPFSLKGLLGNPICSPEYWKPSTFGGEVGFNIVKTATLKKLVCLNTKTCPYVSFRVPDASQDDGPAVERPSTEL
Protocol: as §1, §2

[15] = target: tyrosine hydroxylase (Homo sapiens, UniProt P07101); assay: Enzyme selectivity assay; type: biochemical
tyrosine hydroxylase, sequence (P07101 whole entry): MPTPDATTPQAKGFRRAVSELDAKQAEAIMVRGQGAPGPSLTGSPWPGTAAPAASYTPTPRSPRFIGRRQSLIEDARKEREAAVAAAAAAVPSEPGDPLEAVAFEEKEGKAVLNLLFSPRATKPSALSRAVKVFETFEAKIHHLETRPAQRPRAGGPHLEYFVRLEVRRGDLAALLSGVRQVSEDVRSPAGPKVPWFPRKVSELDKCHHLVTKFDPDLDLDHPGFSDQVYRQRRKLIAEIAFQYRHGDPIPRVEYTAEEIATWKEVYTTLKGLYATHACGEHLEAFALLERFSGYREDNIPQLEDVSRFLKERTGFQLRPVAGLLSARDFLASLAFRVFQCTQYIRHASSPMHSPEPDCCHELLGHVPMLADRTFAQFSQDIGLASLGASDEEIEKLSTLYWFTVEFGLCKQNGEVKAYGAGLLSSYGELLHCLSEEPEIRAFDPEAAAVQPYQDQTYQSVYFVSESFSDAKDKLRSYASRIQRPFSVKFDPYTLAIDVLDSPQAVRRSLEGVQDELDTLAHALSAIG
Protocol: as §1, §2

[16] = target: protein kinase C; assay: Enzyme selectivity assay; type: biochemical
Protocol: as §1, §2

[17] = target: phospholipase A2; assay: Enzyme selectivity assay; type: biochemical
Protocol: as §1, §2

[18] = target: HMG-CoA reductase (Homo sapiens, UniProt P04035); assay: Enzyme selectivity assay; type: biochemical
HMG-CoA reductase, sequence (P04035 whole entry, species assumed): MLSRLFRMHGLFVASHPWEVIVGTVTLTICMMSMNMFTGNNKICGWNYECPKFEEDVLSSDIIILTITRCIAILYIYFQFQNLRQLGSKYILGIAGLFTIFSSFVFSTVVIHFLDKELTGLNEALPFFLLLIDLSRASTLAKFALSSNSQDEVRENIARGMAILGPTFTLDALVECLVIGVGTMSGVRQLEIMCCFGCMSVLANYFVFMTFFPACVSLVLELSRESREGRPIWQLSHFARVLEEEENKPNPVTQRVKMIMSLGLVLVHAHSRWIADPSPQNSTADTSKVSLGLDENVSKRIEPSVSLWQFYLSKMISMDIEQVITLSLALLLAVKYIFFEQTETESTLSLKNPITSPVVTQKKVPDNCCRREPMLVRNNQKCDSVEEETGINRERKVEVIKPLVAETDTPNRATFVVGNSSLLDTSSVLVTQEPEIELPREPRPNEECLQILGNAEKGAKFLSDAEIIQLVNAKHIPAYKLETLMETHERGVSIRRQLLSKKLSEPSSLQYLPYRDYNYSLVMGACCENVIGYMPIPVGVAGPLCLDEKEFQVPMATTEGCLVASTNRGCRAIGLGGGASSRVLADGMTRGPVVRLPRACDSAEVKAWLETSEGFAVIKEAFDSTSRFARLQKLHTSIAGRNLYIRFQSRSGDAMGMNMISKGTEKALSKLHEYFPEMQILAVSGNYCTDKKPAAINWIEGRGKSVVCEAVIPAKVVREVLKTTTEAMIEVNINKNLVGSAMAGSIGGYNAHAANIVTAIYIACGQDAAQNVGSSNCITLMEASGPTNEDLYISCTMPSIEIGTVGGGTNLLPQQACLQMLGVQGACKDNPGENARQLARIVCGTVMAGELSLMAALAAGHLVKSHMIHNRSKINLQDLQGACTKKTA
Protocol: as §1, §2

[19] = target: acetyl CoA synthetase; assay: Enzyme selectivity assay; type: biochemical
Protocol: as §1, §2

[20] = target: nitric oxide synthase; assay: Enzyme selectivity assay; type: biochemical
Protocol: as §1, §2

[21] = target: phosphodiesterase III; assay: Enzyme selectivity assay; type: biochemical
Protocol: as §1, §2

For `Cl.NCc1c[nH]c(=S)n1[C@H]1CCc2c(F)cc(F)cc2C1` [nepicastat, (S)-5-Aminomethyl-1-(5,7-difluoro-1,2,3,4-tetrahydronaphth-2-yl)-2,3-dihydro-2-thioxo-1H-imidazole hydrochloride], the cardiovascular effects [1] was “no cardiovascular effects”, the “calculated renal vascular resistance” value [2] was “decreased” and the “renal blood flow, urine production, sodium and potassium excretion” value [2] was “did not lower renal blood flow or alter urine production or urinary excretion of sodium or potassium”. For the same compound, the mean arterial pressure ([2]; over 3 hours) was “decreased mean arterial pressure”, the Ki [3] was over 10 µM and the Ki [4] was over 10 µM. It also gave a Ki [5] of over 10 µM, a Ki [6] of over 10 µM and a Ki [7] of over 10 µM. The Ki [8] was over 10 µM, the Ki [9] was over 10 µM and the “dopamine/norepinephrine ratios in the brain” value [10] was “increased”. The IC50 [11] was over 10 µM, the IC50 [12] was over 10 µM and the IC50 [13] was over 10 µM. For the same compound, the IC50 [14] was over 10 µM, the IC50 [15] was over 10 µM and the IC50 [16] was over 10 µM. For the same compound, the IC50 [17] was over 10 µM, the IC50 [18] was over 10 µM and the IC50 [19] was over 10 µM. The IC50 [20] was over 10 µM and the IC50 [21] was over 10 µM.
